Data: ChEMBL document CHEMBL1146135, “Benzimidazole inhibitors of hepatitis C virus NS5B polymerase: identification of 2-[(4-diarylmethoxy)phenyl]-benzimidazole” (Bioorg Med Chem Lett, 2006)

Assays:
Huh-5-2 = test: Cytotoxicity against Huh5-2 cells by MTT assay; assay type: functional; conditions: Homo sapiens
DNA polymerase beta = DNA polymerase beta (Homo sapiens, UniProt P06746); test: Inhibitory activity against DNA polymerase beta
[1] = target: T1, RNA-directed RNA polymerase (Hepacivirus hominis, UniProt O39930); test: Inhibitory activity against HCV 1b NS5B RNA dependent RNA polymerase; design: species or system Hepatitis C virus subtype 1b
[2] = target: T2, DNA polymerase alpha catalytic subunit (Homo sapiens, UniProt P09884); test: Inhibitory activity against DNA polymerase alpha
T2 sequence (P09884 whole entry): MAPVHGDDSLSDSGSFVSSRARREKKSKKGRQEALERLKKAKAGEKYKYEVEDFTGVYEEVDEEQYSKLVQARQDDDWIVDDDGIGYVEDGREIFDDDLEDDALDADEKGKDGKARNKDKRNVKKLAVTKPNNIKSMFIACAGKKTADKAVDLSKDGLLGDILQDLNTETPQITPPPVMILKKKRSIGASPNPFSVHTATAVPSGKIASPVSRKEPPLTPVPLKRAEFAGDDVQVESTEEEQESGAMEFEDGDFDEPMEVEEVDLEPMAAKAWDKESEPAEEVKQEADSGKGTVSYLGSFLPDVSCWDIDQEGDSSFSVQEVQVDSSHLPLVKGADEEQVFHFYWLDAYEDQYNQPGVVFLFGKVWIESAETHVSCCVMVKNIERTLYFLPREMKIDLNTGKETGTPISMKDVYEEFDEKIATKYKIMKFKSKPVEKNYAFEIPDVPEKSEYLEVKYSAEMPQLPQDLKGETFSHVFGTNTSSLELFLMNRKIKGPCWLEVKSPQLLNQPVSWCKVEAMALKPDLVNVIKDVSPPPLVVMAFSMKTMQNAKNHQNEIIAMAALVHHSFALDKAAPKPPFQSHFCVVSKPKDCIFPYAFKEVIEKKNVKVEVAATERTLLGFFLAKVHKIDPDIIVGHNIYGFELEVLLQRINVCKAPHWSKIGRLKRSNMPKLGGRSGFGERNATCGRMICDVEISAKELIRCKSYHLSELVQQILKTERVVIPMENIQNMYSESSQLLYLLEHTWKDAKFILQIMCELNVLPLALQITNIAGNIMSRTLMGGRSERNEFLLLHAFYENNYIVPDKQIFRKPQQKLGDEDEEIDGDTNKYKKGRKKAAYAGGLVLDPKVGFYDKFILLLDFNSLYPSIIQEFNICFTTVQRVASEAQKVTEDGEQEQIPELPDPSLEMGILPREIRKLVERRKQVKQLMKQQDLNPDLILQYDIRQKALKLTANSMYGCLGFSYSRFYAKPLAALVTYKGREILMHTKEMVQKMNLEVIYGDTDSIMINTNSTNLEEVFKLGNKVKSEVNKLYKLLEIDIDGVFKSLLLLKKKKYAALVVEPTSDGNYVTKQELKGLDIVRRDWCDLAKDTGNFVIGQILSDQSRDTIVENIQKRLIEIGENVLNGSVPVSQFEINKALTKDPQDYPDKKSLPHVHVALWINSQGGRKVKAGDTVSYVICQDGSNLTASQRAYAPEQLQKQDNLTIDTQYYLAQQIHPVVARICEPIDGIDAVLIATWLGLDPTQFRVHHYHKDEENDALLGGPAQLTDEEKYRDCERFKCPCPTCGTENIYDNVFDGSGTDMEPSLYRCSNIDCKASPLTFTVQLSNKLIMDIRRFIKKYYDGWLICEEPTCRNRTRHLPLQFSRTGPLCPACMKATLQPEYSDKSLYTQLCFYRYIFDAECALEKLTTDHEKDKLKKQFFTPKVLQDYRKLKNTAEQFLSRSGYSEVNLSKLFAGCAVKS

[3] = target: T1, RNA-directed RNA polymerase; test: Inhibitory activity against HCV 1a NS5B RNA dependent RNA polymerase
[4] = target: RNA-directed RNA polymerase (Hepacivirus hominis) (UniProt O39930); test: Inhibitory activity against HCV 1b NS5B RNA dependent RNA polymerase at 10 uM; conditions: Hepatitis C virus subtype 1b
Sequence of RNA-directed RNA polymerase (Hepacivirus hominis) (O39930 1-591): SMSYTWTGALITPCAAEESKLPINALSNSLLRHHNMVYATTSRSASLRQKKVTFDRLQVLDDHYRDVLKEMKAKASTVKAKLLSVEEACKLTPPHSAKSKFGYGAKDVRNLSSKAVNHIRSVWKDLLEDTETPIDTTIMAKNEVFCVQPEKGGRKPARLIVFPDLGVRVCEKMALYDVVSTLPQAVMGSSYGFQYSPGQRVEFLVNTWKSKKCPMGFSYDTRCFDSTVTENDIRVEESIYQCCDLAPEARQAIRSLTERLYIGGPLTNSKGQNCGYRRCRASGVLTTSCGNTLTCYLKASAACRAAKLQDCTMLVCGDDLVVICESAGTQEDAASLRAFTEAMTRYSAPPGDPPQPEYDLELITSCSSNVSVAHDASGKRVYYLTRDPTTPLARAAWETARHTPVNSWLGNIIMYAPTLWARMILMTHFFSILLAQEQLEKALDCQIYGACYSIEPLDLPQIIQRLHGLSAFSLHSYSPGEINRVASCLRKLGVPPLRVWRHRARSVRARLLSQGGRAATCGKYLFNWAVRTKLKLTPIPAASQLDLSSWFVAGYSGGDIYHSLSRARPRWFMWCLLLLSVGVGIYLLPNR

T1 sequence (O39930 whole entry): as the sequence (O39930 1-591) above

IC50 (DNA polymerase beta) [µM]	IC50 [1] [nM]	IC50 [2] [µM]	IC50 [3] [nM]	inhibition [4] [%]	Compound	CC50 (Huh-5-2) [µM]
> 10	800	> 10	1700		O=C(O)c1ccc2c(c1)nc(-c1ccc(OC(c3ccc(F)cc3)c3ccc(F)cc3)cc1)n2C1CCCCC1	27.7
	1800				O=C(O)c1ccc2c(c1)nc(-c1ccc(OCc3ccccc3)cc1)n2C1CCCCCC1	
	1600				Cc1ccc(COc2ccc(-c3nc4cc(C(=O)O)ccc4n3C3CCCC3)cc2)cc1	
	1500				CC(C)(C)c1ccc(COc2ccc(-c3nc4cc(C(=O)O)ccc4n3C3CCCC3)cc2)cc1	
> 10	640	> 10	950		CN(C)C(=O)c1ccc(C(Oc2ccc(-c3nc4cc(C(=O)O)ccc4n3C3CCCCC3)c(F)c2)c2ccc(C(=O)N(C)C)cc2)cc1	> 50
	6700				O=C(O)c1ccc(COc2ccc(-c3nc4cc(C(=O)O)ccc4n3C3CCCC3)cc2)cc1	
	580				O=C(O)c1ccc2c(c1)nc(-c1ccc(Oc3ccccc3-c3ccccc3)cc1)n2C1CCCCC1	
> 10	930	> 10	2400		O=C(O)c1ccc2c(c1)nc(-c1ccc(OC(c3ccc(Cl)cc3)c3ccc(Cl)cc3)cc1)n2C1CCCCC1	23.7
	340				O=C(O)c1ccc2c(c1)nc(-c1ccc(OCCc3ccccc3-c3ccccc3)cc1)n2C1CCCCC1	
> 10	270	> 10	800		O=C(O)c1ccc2c(c1)nc(-c1ccc(OC(c3ccccc3)c3cccnc3)cc1F)n2C1CCCCC1 (stereo not drawn)	> 50
	800				O=C(O)c1ccc2c(c1)nc(-c1ccc(OCCCc3ccccc3)cc1)n2C1CCCCC1	
	300				O=C(O)c1ccc2c(c1)nc(-c1ccc(OCc3ccccc3-c3ccccc3)cc1)n2C1CCCCC1	
> 10	96	> 10	800		O=C(O)c1ccc2c(c1)nc(-c1ccc(OC(c3ccccc3)c3ccccc3)cc1F)n2C1CCCCC1	27.3
	4200				O=C(O)c1ccc2c(c1)nc(-c1ccc(OCc3ccncc3)cc1)n2C1CCCC1	
	1300				O=C(O)c1ccc2c(c1)nc(-c1ccc(OCc3ccc(Cl)c(Cl)c3)cc1)n2C1CCCC1	
	1000				O=C(O)c1ccc2c(c1)nc(-c1ccc(OCCCCCc3ccccc3)cc1)n2C1CCCCC1	
> 10	1200	> 10	3100		Cc1ccc(C(Oc2ccc(-c3nc4cc(C(=O)O)ccc4n3C3CCCCC3)cc2)c2ccc(C)cc2)cc1	23.5

IC50 (DNA polymerase beta) [µM]	IC50 [1] [nM]	IC50 [2] [µM]	IC50 [3] [nM]	inhibition [4] [%]	Compound	CC50 (Huh-5-2) [µM]
	1200				O=C(O)c1ccc2c(c1)nc(-c1ccc(OCc3ccc(Cl)cc3)cc1)n2C1CCCC1	
> 10	590	> 10	1300		O=C(O)c1ccc2c(c1)nc(-c1ccc(OC(c3ccccc3)c3ccccc3)cc1)n2C1CCCCC1	31.9
	1800				O=C(O)c1ccc2c(c1)nc(-c1ccc(OCc3ccc(C(F)(F)F)cc3)cc1)n2C1CCCC1	
> 10	1100	> 10	2200		O=C(O)c1ccc2c(c1)nc(-c1ccc(OC(c3cccnc3)c3cccnc3)cc1F)n2C1CCCCC1	> 50
	1200				O=C(O)c1ccc2c(c1)nc(-c1ccc(OCCOc3ccccc3)cc1)n2C1CCCCC1	
> 10	760	> 10	1900		O=C(O)c1ccc2c(c1)nc(-c1ccc(OC(c3cccc(F)c3)c3cccc(F)c3)cc1)n2C1CCCCC1	24.4
	1400				O=C(O)c1ccc2c(c1)nc(-c1ccc(OCc3ccccc3)cc1)n2C1CCCCC1	
	980				O=C(O)c1ccc2c(c1)nc(-c1ccc(OCC(c3ccccc3)c3ccccc3)cc1)n2C1CCCCC1	
				47	NC(=O)c1ccc2c(c1)nc(-c1ccc(OCc3ccccc3)cc1)n2C1CCCC1	
	1600				O=C(O)c1ccc2c(c1)nc(-c1ccc(OCc3cccc(Cl)c3)cc1)n2C1CCCC1	
	390				O=C(O)c1ccc2c(c1)nc(-c1ccc(OCc3cccc(-c4ccccc4)c3)cc1)n2C1CCCCC1	
	3200				O=C(O)c1ccc2c(c1)nc(-c1ccc(OCc3ccccc3)cc1)n2C1CCCC1	
	2300				O=C(O)c1ccc2c(c1)nc(-c1ccc(OCc3ccccc3Cl)cc1)n2C1CCCC1	
> 10	300	> 10	840		O=C(O)c1ccc2c(c1)nc(-c1ccc(OC(c3ccc(F)cc3)c3ccc(F)cc3)cc1F)n2C1CCCCC1	27.2
	1700				O=C(O)c1ccc2c(c1)nc(-c1ccc(OCc3cc(Cl)cc(Cl)c3)cc1)n2C1CCCC1	
	2100				COc1ccc(COc2ccc(-c3nc4cc(C(=O)O)ccc4n3C3CCCC3)cc2)cc1	
